Like-named read-outs stand apart in the source and are kept apart here. Square brackets hold non-standard residues; d marks the D form. Ends that are not written are not given here. Peptide text beside a SMILES is read from it. * marks the point of attachment. X1 = N=C(N)NCCC[C@@H](NC(=NC1CCCCC1)NC1CCCCC1)C(=O)*; Oic = O=C(O)[C@@H]1C[C@@H]2CCCC[C@@H]2N1; dIgl = N[C@@H](C(=O)O)C1Cc2ccccc2C1; Igl = N[C@H](C(=O)O)C1Cc2ccccc2C1; Hyp = O=C(O)[C@@H]1C[C@@H](O)CN1; 2Thi = N[C@@H](Cc1cccs1)C(=O)O

Usually IC50 stands for the concentration that inhibits the measured activity by half.

The subject of one assay is guinea pig ileum. From the text:
(§1) A change of one unit of pA2 value represents an order of magnitude change in potency.
(§2) On isolated smooth muscles, agonist potency is given as percent of BK potency; antagonist potency is given as pA2, and is underlined. In blood pressure assays, the number is the dose of peptide in micrograms that causes 50% reduction in the effect of BK intraarterially administered as a bolus mixture in a 500 g male rat; Ag indicates unquantitated agonist activity; Ant indicates unquantitated antagonist activity.

A further assay relates to isolated rat uterus.
Description: as §1, §2

The target of the next assay is T1, B1 receptors (Oryctolagus cuniculus, UniProt P48748).
T1 construct: The thorax was opened and the thoracic aorta carefully removed; from tissue; host or cells: rabbit thoracic aorta spiral strips
T1 sequence (P48748 1-352): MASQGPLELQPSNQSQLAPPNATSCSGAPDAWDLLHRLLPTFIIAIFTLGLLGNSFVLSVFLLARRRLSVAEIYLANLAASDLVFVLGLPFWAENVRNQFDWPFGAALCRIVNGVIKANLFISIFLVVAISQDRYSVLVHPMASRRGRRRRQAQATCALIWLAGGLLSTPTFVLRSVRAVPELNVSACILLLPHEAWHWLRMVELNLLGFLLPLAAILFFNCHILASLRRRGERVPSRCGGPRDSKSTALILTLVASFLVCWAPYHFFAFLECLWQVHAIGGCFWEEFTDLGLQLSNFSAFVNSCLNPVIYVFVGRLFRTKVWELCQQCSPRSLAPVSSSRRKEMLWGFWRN
The experiment in a line: B1 receptor bioassay, rabbit aorta strips contracted with des-Arg9-BK. In kind it is cell-based. The settings on record: 50% reduction of sustained contraction to 10^-7 M des-Arg9-BK; read-out: Rabbit Aorta p IC50 B1 receptors (converted). The method, then: Male New Zealand white rabbits, weight range 2-3 kg, were killed by an overdose of pentobarbital i.v. The thorax was opened and the thoracic aorta carefully removed. […] The tissues were placed under 1 gm isometric tension and allowed to equilibrate for 1H. At time 1h, a concentration-effect curve was constructed to the selective B1 agonist des-Arg^9 -BK. This was repeated at time 3 hours. […] Once the contraction was sustained, the compound to be assayed was applied to the tissue bath in a cumulative manner. The concentration of the compound which produced a 50% reduction of the sustained contraction was calculated. The negative logarithm of this concentration was calculated and expressed as the […].

Setting [1] is: guinea pig ileum, vs double ED50 dose of bradykinin.

On to `N=C(N)NCCC[C@@H](N)C(=O)N[C@@H](CCCNC(=N)N)C(=O)N1CCC[C@H]1C(=O)N1C[C@H](O)C[C@H]1C(=O)NCC(=O)N[C@H](C(=O)N[C@@H](CO)C(=O)N1Cc2ccccc2C[C@@H]1C(=O)N[C@@H](C(=O)N[C@@H](CCCNC(=N)N)C(=O)O)C1Cc2ccccc2C1)C1CCCC1` [Compound 13, DArg-Arg-Pro-Hyp-Gly-Cpg-Ser-DTic-DIglb-Arg], for which, in the assay with guinea pig ileum, the “Ileum Activity, antagonist potency given as pA2” value (shortened to “Ileum Activity”) is given as 6.0. Besides, in the assay on isolated rat uterus, the “Uterus Activity, agonist potency given as percent of BK potency” value (from here on “Uterus Activity … as percent of BK potency”) is reported as 8.6%.
In the case of `N=C(N)NCCC[C@@H](N)C(=O)N[C@@H](CCCNC(=N)N)C(=O)N1CCC[C@H]1C(=O)N1C[C@H](O)C[C@H]1C(=O)NCC(=O)N[C@H](C(=O)N[C@@H](CO)C(=O)N1Cc2ccccc2C[C@@H]1C(=O)N(CC(=O)N[C@@H](CCCNC(=N)N)C(=O)O)C1Cc2ccccc2C1)C1CCCC1` [Compound 29, DArg-Arg-Pro-Hyp-Gly-Cpg-Ser-DTic-Nigb-Arg], in the assay with guinea pig ileum, the “Ileum Activity” value stood at 7.6. The “Uterus Activity, antagonist potency given as pA2” value (shortened to “Uterus Activity … as pA2”) in the assay on isolated rat uterus turned out to be 8.1.
Taken in the same sequence, the figures for `N=C(N)NCCC[C@@H](N)C(=O)N[C@@H](CCCNC(=N)N)C(=O)N1CCC[C@H]1C(=O)N1C[C@H](O)C[C@H]1C(=O)NCC(=O)N[C@@H](Cc1cccs1)C(=O)N[C@@H](CO)C(=O)N[C@@H](C(=O)N[C@@H](C(=O)N[C@@H](CCCNC(=N)N)C(=O)O)C1Cc2ccccc2C1)C1CCCC1` [Compound 9, DArg-Arg-Pro-Hyp-Gly-Thi-Ser-DCpg-DIglb-Arg] were 7.2 and 7.4.
As to `N=C(N)NCCC[C@@H](N)C(=O)N[C@@H](CCCNC(=N)N)C(=O)N1CCC[C@H]1C(=O)N1C[C@H](O)C[C@H]1C(=O)NCC(=O)N[C@@H](C(=O)N[C@@H](CO)C(=O)N[C@@H](C(=O)N1[C@H](C(=O)N[C@@H](CCCNC(=N)N)C(=O)O)C[C@@H]2CCCC[C@@H]21)C1Cc2ccccc2C1)C1Cc2ccccc2C1` [Compound 30, DArg-Arg-Pro-Hyp-Gly-DIglb-Ser-DIglb-Oic-Arg], the IC50 on B1 receptors was above 10000 nM.
Turning to `N=C(N)NCCC[C@H](NC(=O)[C@@H]1C[C@@H]2CCCC[C@@H]2N1C(=O)[C@H](NC(=O)[C@H](CO)NC(=O)[C@H](Cc1cccs1)NC(=O)CNC(=O)[C@@H]1C[C@@H](O)CN1C(=O)[C@@H]1CCCN1C(=O)[C@H](CCCNC(=N)N)NC(=O)[C@@H](CCCNC(=N)N)NC(=NC1CCCCC1)NC1CCCCC1)C1Cc2ccccc2C1)C(=O)O` [Compound 58, Dcg-DArg-Arg-Pro-Hyp-Gly-Thi-Ser-DIglb-Oic-Arg] (X1-RP[Hyp]G[2Thi]S[dIgl][Oic]R-OH), in the assay with guinea pig ileum, the “Ileum Activity” value worked out at 5.4. The “Uterus Activity … as percent of BK potency” value in the assay with isolated rat uterus is 3.0%.
Turning to “RPPGFSPFR [bradykinin, Arg^1 -Pro^2 -Pro^3 -Gly^4 -Phe^5 -Ser^6 -Pro^7 -Phe^8 -Arg^9, reference compound]”, the results for the “pD2 value (negative logarithm of the dose causing half-maximal contraction)” value in the assay on guinea pig ileum (guinea pig ileum) and with isolated rat uterus (rat uterus) were 7.4 and 7.9, respectively.
For `N=C(N)NCCC[C@@H](N)C(=O)N[C@@H](CCCNC(=N)N)C(=O)N1CCC[C@H]1C(=O)N1C[C@H](O)C[C@H]1C(=O)NCC(=O)N[C@@H](Cc1ccccc1)C(=O)N[C@@H](CO)C(=O)N[C@H](C(=O)N1[C@H](C(=O)N[C@@H](CCCNC(=N)N)C(=O)O)C[C@@H]2CCCC[C@@H]21)C1Cc2ccccc2C1` [Compound 14, DArg-Arg-Pro-Hyp-Gly-Phe-Ser-Iglb-Oic-Arg] (H-[dR]RP[Hyp]GFS[Igl][Oic]R-OH), the “Ileum Activity” value in the assay on guinea pig ileum stood at 5.1. Also, the “Uterus Activity … as pA2” value in the assay on isolated rat uterus was 6.5.
`N=C(N)NCCC[C@H](NC(=O)[C@@H]1C[C@@H]2CCCC[C@@H]2N1C(=O)[C@@H](NC(=O)[C@H](CO)NC(=O)[C@H](Cc1cccs1)NC(=O)CNC(=O)[C@@H]1C[C@@H](O)CN1C(=O)[C@@H]1CCCN1C(=O)[C@H](CCCNC(=N)N)NC(=O)[C@@H](CCCNC(=N)N)NC(=O)C12CC3CC(CC(C3)C1)C2)C1Cc2ccccc2C1)C(=O)O` [Compound 54, Aca-DArg-Arg-Pro-Hyp-Gly-Thi-Ser-Iglb-Oic-Arg]: the “Uterus Activity … as pA2” value in the assay on isolated rat uterus is given as 5.8.
Turning to `N=C(N)NCCC[C@@H](N)C(=O)N[C@@H](CCCNC(=N)N)C(=O)N1CCC[C@H]1C(=O)N1C[C@H](O)C[C@H]1C(=O)NCC(=O)N[C@H](C(=O)N[C@@H](CO)C(=O)N[C@@H](C(=O)N1[C@H](C(=O)N[C@@H](CCCNC(=N)N)C(=O)O)C[C@@H]2CCCC[C@@H]21)C1Cc2ccccc2C1)C1CCCC1` [Compound 24, DArg-Arg-Pro-Hyp-Gly-Cpg-Ser-DIglb-Oic-Arg], at B1 receptors, the IC50 is 427 nM. The “Ileum Activity” value with guinea pig ileum is recorded as 8.1.
On to `Cc1ccc(C[C@H](NC(=O)CNC(=O)[C@@H]2C[C@@H](O)CN2C(=O)[C@@H]2CCCN2C(=O)[C@H](CCCNC(=N)N)NC(=O)[C@H](N)CCCNC(=N)N)C(=O)N[C@@H](CO)C(=O)N[C@@H](C(=O)N2[C@H](C(=O)N[C@@H](CCCNC(=N)N)C(=O)O)C[C@@H]3CCCC[C@@H]32)C2Cc3ccccc3C2)c(C)c1` [Compound 26, DArg-Arg-Pro-Hyp-Gly-DMF-Ser-DIglb-Oic-Arg], for which the “Ileum Activity” value in the assay on guinea pig ileum amounted to 6.6. Moreover, the “Uterus Activity … as pA2” value with isolated rat uterus is 7.3.
In the case of `N=C(N)NCCC[C@@H](N)C(=O)N[C@@H](CCCNC(=N)N)C(=O)N1CCC[C@H]1C(=O)N1C[C@H](O)C[C@H]1C(=O)NCC(=O)N[C@H](C(=O)N[C@@H](CO)C(=O)N[C@@H](C(=O)N[C@@H](C(=O)N[C@@H](CCCNC(=N)N)C(=O)O)C1Cc2ccccc2C1)C1CCCC1)C1CCCC1` [Compound 11, DArg-Arg-Pro-Hyp-Gly-Cpg-Ser-DCpg-DIglb-Arg], the IC50 on B1 receptors was 398 nM.
`N=C(N)NCCC[C@H](NC(=O)[C@@H]1C[C@@H]2CCCC[C@@H]2N1C(=O)[C@H](NC(=O)[C@H](CO)NC(=O)[C@H](Cc1cccs1)NC(=O)CNC(=O)[C@@H]1C[C@@H](O)CN1C(=O)[C@@H]1CCCN1C(=O)[C@H](CCCNC(=N)N)NC(=O)[C@@H](CCCNC(=N)N)NC(=O)C1=CN2CCC1CC2)C1Cc2ccccc2C1)C(=O)O` [Compound 59, Dhq-DArg-Arg-Pro-Hyp-Gly-Thi-Ser-DIglb-Oic-Arg]: the “Ileum Activity” value with guinea pig ileum came to 7.2. The “Uterus Activity … as pA2” value in the assay with isolated rat uterus was 8.1.
“DArg-Arg-Pro-Hyp-Gly-Thi-Ser-DIgl-Iglb-Arg [Compound 19]”: in the assay with guinea pig ileum (setting [1]), the “Ileum Activity” value is recorded as 6.7. The “Uterus Activity … as percent of BK potency” value with isolated rat uterus (isolated rat uterus) amounted to 9.1%.
In the same order, the values of “DArg-Arg-Pro-Hyp-Gly-Thi-Ser-Higb-Oic-Arg [Compound 125]” are 6.6 and 9.4%.
On to `N=C(N)NCCC[C@@H](N)C(=O)N[C@@H](CCCNC(=N)N)C(=O)N1CCC[C@H]1C(=O)N1C[C@H](O)C[C@H]1C(=O)NCC(=O)N[C@@H](Cc1ccccc1)C(=O)N[C@@H](CO)C(=O)N[C@@H](C(=O)N1[C@H](C(=O)N[C@@H](CCCNC(=N)N)C(=O)O)C[C@@H]2CCCC[C@@H]21)C1Cc2ccccc2C1` [Compound 15, DArg-Arg-Pro-Hyp-Gly-Phe-Ser-DIglb-Oic-Arg] (H-[dR]RP[Hyp]GFS[dIgl][Oic]R-OH), for which, at B1 receptors, the IC50 is 162 nM. The “Ileum Activity” value with guinea pig ileum is recorded as 7.6. For the same molecule, the “Uterus Activity … as pA2” value with isolated rat uterus was determined as 7.9.
Regarding `N=C(N)NCCC[C@@H](N)C(=O)N[C@@H](CCCNC(=N)N)C(=O)N1CCC[C@H]1C(=O)N1C[C@H](O)C[C@H]1C(=O)NCC(=O)N[C@H](C(=O)N[C@@H](CO)C(=O)N1Cc2ccccc2C[C@@H]1C(=O)N[C@H](C(=O)N[C@@H](CCCNC(=N)N)C(=O)O)C1Cc2ccccc2C1)C1CCCC1` [Compound 12, DArg-Arg-Pro-Hyp-Gly-Cpg-Ser-DTic-Iglb-Arg], the “Ileum Activity” value with guinea pig ileum stood at 5.1. Besides, the “Uterus Activity … as percent of BK potency” value with isolated rat uterus amounted to 10.5%.
In the case of `N=C(N)NCCC[C@H](NC(=O)[C@@H]1C[C@@H]2CCCC[C@@H]2N1C(=O)[C@H](NC(=O)[C@H](CO)NC(=O)[C@H](Cc1cccs1)NC(=O)CNC(=O)[C@@H]1C[C@@H](O)CN1C(=O)[C@@H]1CCCN1C(=O)[C@H](CCCNC(=N)N)NC(=O)[C@@H](CCCNC(=N)N)NC(=O)C12CC3CC(CC(C3)C1)C2)C1Cc2ccccc2C1)C(=O)O` [Compound 55, Aca-DArg-Arg-Pro-Hyp-Gly-Thi-Ser-DIglb-Oic-Arg], the 50% inhibitory concentration (IC50) on B1 receptors was 269 nM. Further, the “Ileum Activity” value in the assay with guinea pig ileum came to 8.4. In addition, in the assay on isolated rat uterus, the “Uterus Activity … as pA2” value was 9.2.

Source of the values: patent US5648336A (University of Colorado, priority 1994, dated 1997).
